Measured values taken from paper PMC12196235, “Enhancing the Pharmacological Properties of Triterpenes Through Acetylation: An Anticancer and Antioxidant Perspective” (Molecules, 2025).
Values joined by “and” are separate entries in the source; they are usually repeats but may differ in a detail not shown here. Identical values can stand only once. Like-named read-outs stand apart in the source and are kept apart here.

Columns and labels:
[1] = test system: KB (human oral squamous carcinoma); test: MTT assay, KB; format: cell-based
[2] = test system: MCF-7 (human breast carcinoma); test: MTT assay, MCF-7; format: cell-based
Summary of the method: (§1)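 MCF-7 and A-549 were grown in RPMI 1640, HeLa in DMEM, and HDF in Fibroblast Basal Medium, each with 10% FBS, 1% L-glutamine and 1% penicillin/streptomycin at 37 °C. Viability was measured by MTT reduction to formazan.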

[3] = test system: A-549 (human lung carcinoma); test: MTT assay, A-549; format: cell-based
Summary of the method: as §1

[4] = test system: SKOV-3 (human ovarian carcinoma); test: MTT assay, SKOV-3; format: cell-based
[5] = test system: HDF (human dermal fibroblasts); test: MTT assay, normal HDF; format: cell-based; details: Homo sapiens, Fibroblast, read-out: IC50 (±SD), HDF
Summary of the method: as §1

SKOV-3 = test: Apoptosis assay (Cell Death Detection ELISA Plus), SKOV-3; format: cell-based, human
Protocol: The induction of apoptosis by tested compounds was determined with Cell Death Detection ELISA Plus from Roche Diagnostics GmbH (Mannheim, Germany).
Cell Death Detection ELISA Plus is an enzyme immunoassay for determining cytoplasmic histone-associated DNA fragments (mono- and […]) after induced cell death. Cells (10^4) were pipetted into wells of 96-well plates, and test compounds were added at final concentrations of 0.1, 1.0 and 10.0 µg × mL^−1. Cells incubated in the absence of test compounds served as negative controls. After 4 h of incubation, cells were harvested by centrifugation of the plates for 10 min at 200× g. Supernatants were removed carefully, and cell pellets were resuspended in 200 µL of cell lysis buffer and incubated for 30 min at room temperature. After centrifugation of the plates (10 min at 200× g), 20 µL of cell lysates was transferred in duplicate into wells of provided streptavidin-coated microplates. Then, 80 µL of the immunoreagent containing a mixture of anti-histone-biotin monoclonal antibody and anti-DNA-peroxidase monoclonal antibody was added to each well. The microplates were covered with a provided adhesive foil and incubated for 2 h at room temperature. Thereafter, the solution in the wells was removed by tapping the microplate. The wells were rinsed three times with incubation buffer, and 100 µL of substrate (2,2′-azino-bis [3-ethylbenzothiazoline-6-sulphonic acid], ABTS) was added to each well. After 10–20 min, 100 µL of ABTS stop solution was pipetted to each well, and the absorbance was read at 405 nm (test wavelength) and 490 nm (reference wavelength). The apoptotic index was calculated based on the enrichment of mono- and oligonucleosomes according to the following equation:apoptotic index = [{A405(sample) − A490(sample)}/{A405(negative control) − A490(negative control)}]

DPPH antioxidant assay = details: calculated from Trolox standard curve
Protocol: The results are presented as % inhibition of the copper(II) ions and Trolox equivalent calculated from the standard curve (Figure 9) and as % inhibition of the DPPH radical and Trolox equivalent, calculated from the standard curve (Figure 10).
The CUPRAC reagent (7.5 mM ethanolic 96% neocuproine solution, 10 mM CuCl2 × H2O solution and an ammonium acetate buffer of pH 7.0) and DPPH reagent (2,2-diphenyl-1-picrylhydrazyl 0.2 mM solution) were applied.
The CUPRAC method measures the reducing power of a sample by quantifying its ability to convert the Cu-neocuproine reagent complex to the Cu(I) form. In contrast, the DPPH assay relies on the ability of an antioxidant to donate a hydrogen atom or an electron to the stable DPPH radical, resulting in its reduction and subsequent color change. The results are presented as % inhibition of the copper(II) ions and Trolox equivalent calculated from the standard curve (Figure 9) and as % inhibition of the DPPH radical and Trolox equivalent, calculated from the standard curve (Figure 10). The spectroscopic detection in CUPRAC and DPPH assays was conducted with Synergy H1 Multi-Mode Microplate Reader (BioTek Instruments, Inc., Winooski, VT, USA). The details of the experiments are given in [102].

[6] = test system: CCRF-CEM, CEM (human T lymphoblastic leukemia); details: cited from earlier work
[7] = test system: SFV (Semliki Forest virus); set-up: method as in PMID 19839605; details: ref 43; read-out: antiviral IC50 (SFV); cited from earlier work
[8] = test system: T-47D (human breast carcinoma); details: cited from earlier work; for IC50: read-out: anticancer IC50 (T-47D)
[9] = test system: HPOC (human ovarian carcinoma); details: ref 47; read-out: anticancer IC50 (HPOC); cited from earlier work
[10] = test system: HPCC (human cervical carcinoma); details: ref 47; read-out: anticancer IC50 (HPCC); cited from earlier work
[11] = test system: SGC7901 (human gastric carcinoma); details: ref 48, cited from earlier work
[12] = test system: SW-707 (human colon carcinoma); details: ref 49, cited from earlier work

For `C=C(C)[C@@H]1CC[C@]2(CO)CC[C@]3(C)[C@H](CC[C@@H]4[C@@]5(C)CC[C@H](O)C(C)(C)[C@@H]5CC[C@]43C)[C@@H]12` [5a, betulin], the IC50 ([1]; Homo sapiens, MTT assay, KB) was 19.7 µM, the “Selectivity index (SI), KB” value ([1]; IC50 HDF / IC50 KB) was 0.80 and the IC50 ([2]; Homo sapiens, MCF7, MTT assay, MCF-7, read-out: IC50 (±SD), MCF-7) was 18.1 µM. For the same compound, the “Selectivity index (SI), MCF-7” value ([2]; IC50 HDF / IC50 MCF-7) was 0.87, the IC50 ([3]; Homo sapiens, A549, MTT assay, A-549, read-out: IC50 (±SD), A-549) was 19.6 µM and the “Selectivity index (SI), A-549” value ([3]; IC50 HDF / IC50 A-549) was 0.81. For the same compound, the IC50 ([4]; Homo sapiens, SK-OV-3, MTT assay, SKOV-3, read-out: IC50 (±SD), SKOV-3) was 6.95 µM, the “Selectivity index (SI), SKOV-3” value ([4]; IC50 HDF / IC50 SKOV-3) was 2.27 and the IC50 [5] was 15.8 µM. For the same compound, the mean apoptotic index (SKOV-3; 0.1 µg/mL, mean over SKOV-3 and PC-3) was 5.54, the “Apoptotic index (AI), SKOV-3” value (SKOV-3; SKOV-3, 4 h incubation, enrichment of mono- and oligonucleosomes vs negative control) was 5.26 (0.03) and the “Trolox Equivalent, DPPH Assay” value (DPPH antioxidant assay) was 0.01077 mg/mL and 0.01077 ± 0.000446 mg/mL. For the same compound, the IC50 ([6]; ref 26, read-out: anticancer IC50 (CCRF-CEM, CEM)) was 250 µM, the “anticancer IC50 (CCRF/CEM)” value ([6]; ref 49) was 10.9 µg/mL and the IC50 ([6]; ref 49, read-out: anticancer IC50 (CCRF/CEM)) was 24.6 µM. The IC50 [7] was 45.5 µM, the IC50 ([8]; ref 47) was 5.2 µM and the “anticancer IC50 (T-47D)” value ([8]; ref 49) was 32.4 µg/mL. For the same compound, the IC50 ([8]; ref 49) was 73.2 µM, the IC50 [9] was 2.8 µM and the IC50 [10] was 3.4 µM. The “anticancer IC50 (SGC7901)” value [11] was 13 µg/mL, the IC50 ([11]; read-out: anticancer IC50 (SGC7901)) was 29.4 µM and the “anticancer IC50 (SW-707)” value [12] was 22.9 µg/mL. For the same compound, the IC50 ([12]; read-out: anticancer IC50 (SW-707)) was 51.7 µM.
